Holding throughout (experiment): NCI tumour cell line growth inhibition, 48 h
Assay [1] concerns HOP-18 NSCLC.
In assay [2] the test system is SN12K1 renal.
In assay [3] the test system is MCF7 breast.
Assay [4] relates to NCI/ADR-RES ovarian.
The subject of assay [5] is SK-OV-3 ovarian.
Assay [6] deals with HCC-2998 colon.
Assay [7] deals with P388/ADR leukemia.
Assay [8] deals with DMS 273 small cell lung.
Assay [9] concerns NCI-H226 lung.
For assay [10], the system named is HCT-15 colon.
For assay [11], the system named is LOX IMVI melanoma.
Assay [12] deals with SNB-78 CNS.
In assay [13] the test system is P388 leukemia.
For assay [14], the system named is OVCAR-5 ovarian.
In assay [15] the test system is CAKI-1 renal.
The test system of assay [16] is XF 498 CNS.
For assay [17], the system named is SR leukemia.
For assay [18], the system named is M14 melanoma.
Assay [19] has as its system LXFL 529 NSCLC.
For assay [20], the system named is TK-10 renal.

TGI data for 2 molecules are collected here from PubChem BioAssay (NCI).

Molecules are shown by their SMILES.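 How tested: cells in 96-well plates exposed to compound for 48 hours at five concentrations. At the TGI there is no net growth.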

Regarding `O=C(O)c1ccc(Nc2c3ccccc3nc3ccccc23)cc1`, the TGI in [1], in assay [2], in assay [3], in assay [4], in assay [5] and in assay [6] was greater than 100 µM throughout. The TGI is 98.4 µM in assay [7]; greater than 100 µM in [8]; greater than 100 µM in assay [9]; greater than 100 µM in [10]; greater than 100 µM in [11]; greater than 100 µM in [12]. In addition, the TGI was greater than 46.6 µM in [13], greater than 100 µM in assay [14] and greater than 100 µM in assay [15].

With `O=C1C(Cl)N(c2ccc(Cl)cc2)C1c1c[nH]c2ccccc12` (stereo not given), the TGI in assay [16] is 31.3 µM; in [17], 39.4 µM; in assay [18], 42.3 µM; in assay [19], 30.2 µM; in assay [20], 34.8 µM.
